Several values for one entry are separate records, joined by “and”; a condition that tells them apart may be missing. Equal values may be shown once. Inconclusive results and toxic doses are left out. Rule as the data show it: active = T/C of 150% or more; inactive = T/C below 125%.
Test system: L1210 leukemia ip in BDF1 mice, survival T/C
Assay: NCI In Vivo Anticancer Drug Screen. Data for tumor model L1210 Leukemia (intraperitoneal) in B6D2F1 (BDF1) mice
Conditions: endpoint: mean survival time, higher = longer survival
Procedure, shortened: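 Each compound was tested against a transplantable tumor grown in mice. The endpoint was survival, with treated animals benchmarked against vehicle controls as a simple ratio.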

[1] = dose: 100.0 mg/kg/injection, schedule: Q04DX002 (ip), vehicle: Klucel (hydroxypropylcellulose) (HPC)
[2] = dose: 200.0 mg/kg/injection, schedule: Q04DX002 (ip), vehicle: Klucel (hydroxypropylcellulose) (HPC)
[3] = dose: 400.0 mg/kg/injection, schedule: Q04DX002 (ip), vehicle: Klucel (hydroxypropylcellulose) (HPC)
[4] = dose: 100.0 mg/kg/injection, schedule: Q01DX001 (ip), vehicle: saline
[5] = dose: 200.0 mg/kg/injection, schedule: Q01DX001 (ip), vehicle: saline
[6] = dose: 400.0 mg/kg/injection, schedule: Q01DX001 (ip), vehicle: saline
[7] = dose: 100.0 mg/kg/injection, schedule: Q04DX003 (ip), vehicle: saline with Tween-80
[8] = dose: 200.0 mg/kg/injection, schedule: Q04DX003 (ip), vehicle: saline with Tween-80
[9] = dose: 400.0 mg/kg/injection, schedule: Q04DX003 (ip), vehicle: saline with Tween-80
[10] = dose: 100.0 mg/kg/injection, schedule: Q04DX003 (ip), vehicle: saline
[11] = dose: 200.0 mg/kg/injection, schedule: Q04DX003 (ip), vehicle: saline
[12] = dose: 400.0 mg/kg/injection, schedule: Q04DX003 (ip), vehicle: saline
[13] = dose: 100.0 mg/kg/injection, schedule: Q04DX002 (ip), vehicle: saline
[14] = dose: 100.0 mg/kg/injection, schedule: Q01DX009 (ip), vehicle: Klucel (hydroxypropylcellulose) (HPC)
[15] = dose: 100.0 mg/kg/injection, schedule: Q04DX003 (ip), vehicle: Klucel (hydroxypropylcellulose) (HPC)
[16] = dose: 200.0 mg/kg/injection, schedule: Q01DX009 (ip), vehicle: Klucel (hydroxypropylcellulose) (HPC)
[17] = dose: 200.0 mg/kg/injection, schedule: Q04DX003 (ip), vehicle: Klucel (hydroxypropylcellulose) (HPC)
[18] = dose: 400.0 mg/kg/injection, schedule: Q01DX009 (ip), vehicle: Klucel (hydroxypropylcellulose) (HPC)
[19] = dose: 400.0 mg/kg/injection, schedule: Q04DX003 (ip), vehicle: Klucel (hydroxypropylcellulose) (HPC)

Measured: T/C

Cc1ccc(N=[N+]([O-])c2ccc(C)c(Br)c2)cc1Br
inactive: [1] 102 % of control | [2] 98 % of control | [3] 98 % of control

Cc1ccc(S(=O)(=O)n2cc[nH]c2=O)cc1
inactive: dose: 100.0 mg/kg/injection, schedule: Q01DX001 (ip), vehicle: Klucel (hydroxypropylcellulose) (HPC) 100 % of control | dose: 200.0 mg/kg/injection, schedule: Q01DX001 (ip), vehicle: Klucel (hydroxypropylcellulose) (HPC) 100 % of control | dose: 400.0 mg/kg/injection, schedule: Q01DX001 (ip), vehicle: Klucel (hydroxypropylcellulose) (HPC) 105 % of control

O=C(/C=C/c1ccc(Cl)cc1)NCC(O)CO (centres undefined)
inactive: dose: 150.0 mg/kg/injection, schedule: Q04DX003 (ip), vehicle: water 100 % of control | dose: 300.0 mg/kg/injection, schedule: Q04DX003 (ip), vehicle: water 105 % of control | dose: 600.0 mg/kg/injection, schedule: Q04DX003 (ip), vehicle: water 102 % of control

Cc1ccnc(NS(=O)(=O)c2ccc(N=Nc3ccc(O)c4ncccc34)cc2)n1
inactive: [4] 108 % of control | [5] 100 % of control | [6] 97 % of control

OC(CCCCC(O)(c1ccccc1)c1ccccc1)(c1ccccc1)c1ccccc1
inactive: [7] 89 % of control | [8] 94 % of control | [9] 96 % of control

C1CCNNC1
inactive: [4] 104 % of control | [10] 114 % of control | [5] 98 % of control | [11] 94 % of control | [6] 95 % of control | [12] 89 % of control

CC(=O)Nc1c(O)c(Cl)c(Cl)c(Cl)c1Cl
inactive: [10] 105 % of control | [11] 101 % of control | [12] 94 % of control

CCN(C)CCC(C=O)(c1cccc2ccccc12)C(C)C (centres undefined)
inactive: [13] 100 % of control

COc1ccccc1-c1cn(O)c2nc(=N)nc(N)c-2n1
inactive: [13] 97 % of control | dose: 200.0 mg/kg/injection, schedule: Q04DX002 (ip), vehicle: saline 94 % of control | dose: 400.0 mg/kg/injection, schedule: Q04DX002 (ip), vehicle: saline 111 % of control

COC(=O)c1ccccc1NC(=O)NCCBr
inactive: [14] 95 % of control | [15] 103 % of control | [16] 93 % of control | [17] 97 % of control | [18] 93 % of control | [19] 110 % of control

Cc1cn(-c2c(C)c(C)c(-n3c(C)ccc3C)c(C)c2C)cc1C
inactive: [14] 86 % of control | [16] 93 % of control | [18] 90 % of control

CN(C)CCCN1c2ccccc2S(=O)c2ccc(Cl)cc21 (centres undefined)
inactive: dose: 12.5 mg/kg/injection, schedule: Q01DX009 (ip), vehicle: saline 96 % of control | dose: 25.0 mg/kg/injection, schedule: Q01DX009 (ip), vehicle: saline 102 % of control | dose: 25.0 mg/kg/injection, schedule: Q04DX003 (ip), vehicle: saline 109 % of control | dose: 50.0 mg/kg/injection, schedule: Q01DX009 (ip), vehicle: saline 111 % of control | dose: 50.0 mg/kg/injection, schedule: Q04DX003 (ip), vehicle: saline 106 % of control | dose: 100.0 mg/kg/injection, schedule: Q01DX009 (ip), vehicle: saline 96 % of control | [10] 95 % of control | dose: 200.0 mg/kg/injection, schedule: Q01DX009 (ip), vehicle: saline 107 % of control | [11] 103 % of control

Oc1cc(N2CC2)c(O)cc1N1CC1
inactive: dose: 0.5 mg/kg/injection, schedule: Q01DX009 (ip), vehicle: saline 118 % of control
active: dose: 0.3 mg/kg/injection, schedule: Q01DX009 (ip), vehicle: saline 154 % of control

CCCCCCCCc1nc2c(c(=O)n(C)c(=O)n2C)n1C
inactive: dose: 45.0 mg/kg/injection, schedule: Q01DX001 (ip), vehicle: saline 95 % of control and 101 % of control | dose: 67.0 mg/kg/injection, schedule: Q01DX001 (ip), vehicle: saline 101 % of control and 104 % of control | [4] 97 % of control and 104 % of control | dose: 150.0 mg/kg/injection, schedule: Q01DX001 (ip), vehicle: saline 95 % of control and 101 % of control

COc1ccc([N+](=O)[O-])cc1NC(=O)N(c1ccccc1)C(C)C
inactive: dose: 50.0 mg/kg/injection, schedule: Q01DX009 (ip), vehicle: Klucel (hydroxypropylcellulose) (HPC) 101 % of control | [14] 107 % of control | [16] 86 % of control

NC(=O)C1C2C=CC(C2)C1C(N)=O (centres undefined)
inactive: [7] 96 % of control | [8] 91 % of control | [9] 98 % of control

S=c1[nH]c(=S)c2[nH]cnc(=S)c2[nH]1
inactive: dose: 2.0 mg/kg/injection, schedule: Q01DX Z (ip), vehicle: carboxymethylcellulose (CMC) 103 % of control | dose: 4.0 mg/kg/injection, schedule: Q01DX Z (ip), vehicle: carboxymethylcellulose (CMC) 91 % of control | dose: 8.0 mg/kg/injection, schedule: Q01DX Z (ip), vehicle: carboxymethylcellulose (CMC) 89 % of control | dose: 12.5 mg/kg/injection, schedule: Q01DX Z (ip), vehicle: carboxymethylcellulose (CMC) 91 % of control | dose: 25.0 mg/kg/injection, schedule: Q01DX Z (ip), vehicle: carboxymethylcellulose (CMC) 96 % of control

O=C1C2=C(CCC2)c2ccccc21
inactive: [4] 103 % of control | [5] 96 % of control

CCN(CCOC(=O)Nc1cc([N+](=O)[O-])ccc1C)c1ccccc1
inactive: [1] 87 % of control | [2] 94 % of control | [3] 90 % of control

Cc1cc(C(N)=O)c(C(N)=O)c(=O)[nH]1
inactive: dose: 75.0 mg/kg/injection, schedule: Q01DX001 (ip), vehicle: water 97 % of control | dose: 150.0 mg/kg/injection, schedule: Q01DX001 (ip), vehicle: water 92 % of control

CC1=C(c2ccccc2)C(c2ccccc2)=CC1=O
inactive: dose: 50.0 mg/kg/injection, schedule: Q01DX001 (ip), vehicle: carboxymethylcellulose (CMC) 95 % of control | dose: 100.0 mg/kg/injection, schedule: Q01DX001 (ip), vehicle: carboxymethylcellulose (CMC) 92 % of control | dose: 200.0 mg/kg/injection, schedule: Q01DX001 (ip), vehicle: carboxymethylcellulose (CMC) 92 % of control | dose: 400.0 mg/kg/injection, schedule: Q01DX001 (ip), vehicle: carboxymethylcellulose (CMC) 95 % of control

CCCCCCCCCCCCSC1=NS(=O)(=O)c2ccccc21
inactive: [15] 106 % of control | [17] 94 % of control | [19] 90 % of control

CCCc1cc(C(C)=O)c[n+](C2OC(COC(C)=O)C(OC(C)=O)C(OC(C)=O)C2OC(C)=O)c1 (centres undefined)
inactive: dose: 50.0 mg/kg/injection, schedule: Q01DX005 (ip), vehicle: water 97 % of control | dose: 100.0 mg/kg/injection, schedule: Q01DX005 (ip), vehicle: water 97 % of control
